In patent publication US9464326B2, “Total and phosphorylated IL-1 receptor-associated kinase-1 and IL-1 receptor-associated kinase-4 as a biomarker for cancer progression and chemotherapy resistance” (University of Maryland, Baltimore, priority 2012, dated 2016):

Experiments:
patient T-ALL cells = test: Western blot of patient T-ALL samples from treated NSG mice; type: in vivo
Description: CCRF-CEM (2×10^6) cells were injected intravenously (i.v.) into female NOD.Cg-Prkdc^scid Il2rg^tm1WJl/SzJ IL2RG (NSG) mice (Jackson Laboratories, Bar Harbor, Me.). […] In some experiments mice were injected i.v. with TLR1-TLR2 ligand (2.5 μg) two days after injecting cells. In other experiments mice were injected intraperitoneally (i.p.) with IRAK-1,-4 inhibitor (10 mg/kg) 3, 6, and 9 days (CCRF-CEM cells) or 7, 10, and 13 days (patient T-ALL cells) after detecting CD7^+ T-ALL cells in circulation. The numbers of T-ALL cells in the bone marrow, spleen, liver, and in circulation were determined by staining cells with anti-human CD7 and/or CD5. To compare T-ALL numbers between groups, 10 μl of calibration microbeads (BD Pharmingen) were added to 50 μl of blood (or marrow or spleen suspensions) and the flow cytometry instrument gates were set to count a constant number of beads.
The levels of p-mTOR and p-p65 were also examined in patient T-ALL samples obtained from mice treated with IRAK-1,-4 inhibitor or DMSO.

CCRF-CEM cells [1] = test: Cellular senescence assay (SA-β-gal); type: cell-based, human; settings: 5 μM, within 48 hours, maintained to 96 hour, FIG. 15A
Description: Analysis of senescence-associated β-galactosidase (SA-β-gal) activity was performed using the 96-Well Cellular Senescence Assay Kit (Cell Biolabs, San Diego, Calif.) as per the manufacturer's protocol. In brief, cells were washed with PBS, lysed with cell lysis buffer, and incubated at 37° C. with SA-β-gal substrate for 1 hour. A quantitative Cellular Senescence Assay Kit (SA-β-gal, Fluorometric) (Cell Biolabs, San Diego, Calif.) was used for more quantitative measurement of SA-β-gal activity by flow cytometry. Briefly, control and treated CCRF-CEM cells were incubated with 1× cell pretreatment solution in culture medium for 2 hrs, and the fluorogenic substrate was then directly added into the culture. After 4 hrs, the cells were washed and analyzed by flow cytometry.

CCRF-CEM cells [2] = test: Senescence gene qPCR array / RT-PCR; type: cell-based, human; settings: array of 84 senescence genes, COL1A1 not validated by RT-PCR
From the text: To further study the role of IRAK-1,-4 signaling in cellular senescence, we compared the expression of 84 key genes involved in the initiation and progression of senescence. […] Expression levels of CDKN1C, EGR1 and ID1 were also altered in all four T-ALL patient samples collected from IRAK-1,-4 inhibitor-treated NSG mice (FIG. 15E).

Molt-4 = test: Proliferation (3H-thymidine) of Molt-4; type: cell-based, human; settings: 3H-thymidine uptake, 72 h
From the text: CCRF-CEM, CEM/C1, CEM/C2, CEM-C7, Jurkat, Loucy, Molt-4, HSB-2, SUP-T1, Hut 78, HH, Hut 102, MO, and H9 T-leukemia and T-lymphoma cell lines were purchased from the American Type Culture Collection (Manassas, Va., USA). All of the cell lines were initially expanded and cryopreserved within one month of receipt. Cells were typically used for 6 months at which time a fresh vial of cryopreserved cells was used. Total T cells from healthy donors were isolated via negative selection followed by positive selection using a CD3+ selection kit (Invitrogen, Carlsbad, Calif.). T cells were isolated from patients with T-ALL bone marrow or peripheral blood samples containing more than 70% leukemia cells using a CD2+ isolation kit (STEMCELL Technologies, Vancouver, Canada). All tissues were collected under institutional IRB-approved protocols and all participants gave written informed assent/consent. For in vitro experiments, T-ALL cells were cultured in AIM-V medium supplemented with 20% human AB serum in the presence of recombinant human stem cell factor (50 ng/mL; Amgen, Thousand Oaks, Calif.), insulin (20 nM; Sigma-Aldrich, St Louis, Mo., USA) and IL-7 (50 ng/mL; R&D Systems, Minneapolis, Minn., USA). […]
Cells were cultured in a 96-well plate (Corning Costar, Corning, N.Y., USA) with various concentrations of TLR ligands 1-9, starting at 10 μg/ml, in a final volume of 200 ul. […] After this time point, cells were harvested with a Packard Filter-Mate-96 cell harvester (Perkin Elmer, Waltham, Mass., USA) and counted on Packard Top Count-NXT (Perkin Elmer, Waltham, Mass., USA). Results were expressed as average counts per minute (cpm). […] Forty-eight hours later, proliferation (±SD) was determined by ^3H-thymidine incorporation. Alternatively, apoptosis was measured by flow cytometry after staining cells with Annexin-V (BD Pharmingen, San Diego, Calif., USA) and propidium iodide (Sigma). Cell number was counted under microscopy by staining cells with trypan blue. […]

Row | Compound | p-mTOR levels (patient T-ALL cells; patient sample #810 (barely detectable p-IRAK-4), treated in vivo) | reduction of p-p65 levels (patient T-ALL cells; patient samples #825 and #828 from treated NSG mice) | increase of SA-β-gal activity (CCRF-CEM cells [1]) | expression of CDKN1C, COL1A1, EGR1, ID1, PLAU and SERPINES (CCRF-CEM cells [2]) | Proliferative effects of TLR ligands (Molt-4)
1 | O=C(Nc1nc2ccccc2n1CCN1CCOCC1)c1cccc([N+](=O)[O-])c1 [IRAK-1,-4 inhibitor] | did not show changes | two-fold | three-fold | significantly up- or down-regulated | –
2 | tripalmitoyl-S-(bis(palmitoyloxy)propyl)-Cys-Ser-(Lys)3-Lys [Pam3Cysk4] | – | – | – | – | ∘
